Measured values published in patent publication US10947511B2, “Differentiation of human embryonic stem cells into pancreatic endocrine cells using thyroid hormone and/or alk5, an inhibitor of tgf-beta type 1 receptor” (Janssen Biotech, Inc., priority 2012, dated 2021).
Entries after “also recorded” stand apart in the source; their conditions may differ.

Columns and labels:
[1] = test system: human embryonic stem cell line H1; assay: Real-time PCR of marker genes in H1 cells differentiated as in Example 2, T3 added at Stages 4 through 6; assay type: cell-based
Method: (§1) All primers were purchased from Applied Biosystems.
(§2) Cultures were differentiated into cells expressing markers characteristic of pancreatic endoderm/endocrine precursor cells by the protocol outlined below. • a. […] SD208 is 2-(5-Chloro-2-fluorophenyl)pteridin-4-yl]pyridin-4-yl-amine) having the structure of formula I, and disclosed in Molecular Pharmacology 2007, 72:152-161. SD208 is a 2,4-disubstituted pteridine, ATP-competitive inhibitor of the TGF-βR I kinase.
(§3) In some cultures, 1 μM T3 (T6397, Sigma, MO) was added at Stages 4 through 6. At the end of Stages 4 through 6, the control and treated cultures were analyzed by FACS and immunostaining. Furthermore, mRNA was collected for the control and treated cultures at Stages 2 through 6.

[2] = test system: human embryonic stem cell line H1; assay: Immunostaining for HB9 and NKX6.1 at Stage 6, control vs T3 treated cultures (Example 2); assay type: cell-based
Method: as §1, §2, §3

[3] = test system: human embryonic stem cell line H1; assay: Immunostaining for NKX6.1 and HB9 at Stage 6 day 6, T3 dose response (Example 4); assay type: cell-based; settings: 0-1000 nM T3 at Stages 5 and 6, dose dependent
Text: as §1
Forty-eight hours post-seeding, cultures were washed in incomplete PBS (phosphate buffered saline without Mg or Ca). Cultures were differentiated into cells expressing markers characteristic of pancreatic endoderm/endocrine precursor cells by the protocol outlined below. • a.

[4] = T3 vs T4; cited from earlier work
[5] = in the blood; cited from earlier work
[6] = 1 μM T3 added at Stages 4 through 6, real-time PCR
[7] = 1 μM T3 added at Stages 4 through 6, real-time PCR vs control
[8] = 1 μM T3 addition, real-time PCR

Row | SMILES | insulin expression ([1]; 1 μM T3 added at Stages 4 through 6, at Stage 5, real-time PCR) | NKX2.2 expression [1, 6] | NKX6.1 expression [1, 6] | PDX1 expression [1, 6] | ghrelin expression [1, 7] | glucagon expression [1, 7] | somatostatin expression [1, 7] | CDX2 (intestine marker) expression [1, 8] | SOX2 (stomach marker) expression [1, 8] | albumin (liver marker) expression [1, 8] | number of HB9 positive cells ([2]; Stage 6, T3 treated group vs control) | number of NKX6.1 positive cells showing expression of HB9 ([2]; T3 treated cultures) | number of HB9 positive cells in the NKX6.1 positive pancreatic endoderm precursor cells [3] | potency relative to T4 [4] | half-life relative to T3 [5]
1 | N[C@@H](Cc1cc(I)c(Oc2ccc(O)c(I)c2)c(I)c1)C(=O)O [T3, triiodothyronine] | moderately increasing | significantly decreased | apparently not affecting | apparently not affecting | significantly down regulated | significantly down regulated | significantly down regulated | not affecting | suppressed | suppressed | increases; also recorded: significant increase | increased number | significantly enhanced | three to four times more potent than T4 | 
2 | N[C@@H](Cc1cc(I)c(Oc2cc(I)c(O)c(I)c2)c(I)c1)C(=O)O [T4, thyroxine] |  |  |  |  |  |  |  |  |  |  |  |  |  |  | longer half-life than T3
